According to ChEMBL document CHEMBL4265906, “Synthesis and biological evaluation of isoxazolyl-sulfonamides: A non-cytotoxic scaffold active against Trypanosoma cruzi, Leishmania amazonensis and Herpes Simplex Virus” (Bioorg Med Chem Lett, 2018):
Calls of active or inactive are those of the source. The calls are words filed in the database; no cut-off is given here.

Experiments:
Human alphaherpesvirus 1 [1] = experiment: Antiviral activity against […] HSV1 KOS infected in African green monkey Vero cells assessed as inhibition of viral replication after 48 hrs by naphthol blue-black staining-based assay; type: functional, organism-based
Human alphaherpesvirus 1 [2] = experiment: Antiviral activity against […] HSV1 KOS infected in African green monkey Vero cells assessed as inhibition of viral replication at 100 uM after 48 hrs by naphthol blue-black staining-based assay; type: functional; conditions: for inhibition at 100 µM: Human alphaherpesvirus 1, KOS
Trypanosoma cruzi [3] = experiment: Trypanocidal activity against Trypanosoma cruzi Tulahuen trypomastigotes infected in human THP1 cells assessed as growth inhibition after 48 hrs by chlorophenolred-beta-d-galactopyranoside/Nonidet P-40 reagent-based assay; type: functional
Trypanosoma cruzi [4] = experiment: Trypanocidal activity against Trypanosoma cruzi Tulahuen trypomastigotes infected in human THP1 cells assessed as growth inhibition at 50 uM after 48 hrs by chlorophenolred-beta-d-galactopyranoside/Nonidet P-40 reagent-based assay; type: functional; conditions: for inhibition of growth at 50 µM: THP-1, 48 h, read-out: GI
Leishmania amazonensis [5] = experiment: Leishmanicidal activity against Leishmania amazonensis MHOM/BR/77/LTB0016 amastigotes infected in human THP1 cells assessed as growth inhibition at 50 uM after 48 hrs by chlorophenolred-beta-d-galactopyranoside/Nonidet P-40 reagent-based assay; type: functional; conditions: for inhibition of growth at 50 µM: MHOM/BR/77/LTB0016, THP-1, 48 h, read-out: GI
[6] = Selectivity index, ratio of CC50 for human THP1 cells to G150 for Trypanosoma cruzi Tulahuen trypomastigotes; type: toxicity; conditions: THP-1 cells, read-out: Selectivity Index
[7] = Cytotoxicity against human A549 cells assessed as reduction in cell viability after 48 hrs by sulforhodamine B assay; type: cell-based
[8] = Cytotoxicity against human THP1 cells assessed as reduction in cell viability by MTT assay; type: cell-based; conditions: THP-1 cells
[9] = Cytotoxicity against human HCT8 cells assessed as reduction in cell viability after 48 hrs by sulforhodamine B assay; type: cell-based; conditions: HCT-8 cells
[10] = Cytotoxicity against African green monkey Vero cells assessed as reduction in cell viability after 48 hrs by sulforhodamine B assay; type: cell-based; conditions: chlorocebus sabaeus
[11] = Selectivity index, ratio of CC50 for African green monkey Vero cells to IC50 for HSV1 KOS; type: toxicity; conditions: read-out: Ratio CC50/IC50
Leishmania amazonensis [12] = experiment: Leishmanicidal activity against Leishmania amazonensis MHOM/BR/77/LTB0016 amastigotes infected in human THP1 cells assessed as growth inhibition at 2 uM after 48 hrs by chlorophenolred-beta-d-galactopyranoside/Nonidet P-40 reagent-based assay; type: functional; conditions: MHOM/BR/77/LTB0016, THP-1, 48 h, read-out: GI
[13] = Human alphaherpesvirus 1, KOS, Vero, 48 h, read-out: IC50

Row | Structure (SMILES) | GI50 (Trypanosoma cruzi [3]; THP-1, 48 h) [µM] | inhibition of growth at 50 µM (Trypanosoma cruzi [4]) [%] | inhibition of growth at 50 µM (Leishmania amazonensis [5]) [%] | selectivity ratio [6] | IC50 (Human alphaherpesvirus 1 [1]; [13]) [µM] | inhibition at 100 µM (Human alphaherpesvirus 1 [2]) [%] | further results
1 | O=S(=O)(NCc1cc(-c2ccc3c(c2)OCO3)no1)c1ccc(Cl)cc1 | > 50 | 14.2 | 30.7 |  |  |  | IC50 (Human alphaherpesvirus 1 [1]; vero): Not Active; inhibition (Human alphaherpesvirus 1 [2]): inactive
2 | O=[N+]([O-])c1ccc(-c2cc(CNS(=O)(=O)c3ccc([N+](=O)[O-])cc3)on2)cc1 | 38.6 | 76.2 | 25.2 | > 12.9 |  |  | IC50 (Human alphaherpesvirus 1 [1]; vero): Not Active; inhibition (Human alphaherpesvirus 1 [2]): inactive
3 | COc1ccc(-c2cc(CNS(=O)(=O)c3ccc(Cl)cc3)on2)cc1OC | > 50 | 27.4 |  |  | > 100 | 2 | growth inhibition (GI) (Leishmania amazonensis [5]): inactive
4 | O=[N+]([O-])c1ccc(S(=O)(=O)NCc2cc(-c3ccc4c(c3)OCO4)no2)cc1 | 11.6 | 86.3 | 43.4 | 29.1 | > 100 | 25.3 | CC50 at 48 h [7]: 284 µM; CC50 [8]: 339 µM; CC50 at 48 h [9]: > 500 µM; CC50 at 48 h [10]: 387 µM
5 | Cc1ccc(S(=O)(=O)NCc2cc(-c3ccc4c(c3)OCO4)no2)cc1 |  |  | 11.4 |  | > 100 | 19.1 | CC50 at 48 h [7]: 358 µM; CC50 [8]: > 500 µM; GI50 (Trypanosoma cruzi [3]): inactive; CC50 at 48 h [9]: 437 µM; growth inhibition (GI) (Trypanosoma cruzi [4]): inactive; CC50 at 48 h [10]: > 500 µM
6 | O=[N+]([O-])c1ccc(S(=O)(=O)NCc2cc(-c3ccccc3)no2)cc1 | > 50 | 34 | 18.4 |  | > 100 | 10.4 | 
7 | Nc1nc2c(ncn2COCCO)c(=O)[nH]1 [ACYCLOVIR] |  |  |  |  | 1.29 |  | selectivity ratio [11]: > 1500
8 | C[C@@H]1[C@H](O)[C@@H](C)/C=C/C=C/C=C/C=C/C=C/C=C/C=C/[C@H](O[C@@H]2O[C@H](C)[C@@H](O)[C@H](N)[C@@H]2O)C[C@@H]2O[C@](O)(C[C@@H](O)C[C@@H](O)[C@H](O)CC[C@@H](O)C[C@@H](O)CC(=O)O[C@H]1C)C[C@H](O)[C@H]2C(=O)O [AMPHOTERICIN B] |  |  |  |  |  |  | inhibition of growth at 2 µM (Leishmania amazonensis [12]): 92.1%
9 | COc1ccc(-c2cc(CNS(=O)(=O)c3ccc([N+](=O)[O-])cc3)on2)cc1 | 14.3 | 85.8 | 48.7 | > 34.8 | 137 | 60 | selectivity ratio [11]: > 3.6
10 | COc1ccc(-c2cc(CNS(=O)(=O)c3ccc(Cl)cc3)on2)cc1 |  |  | 6.4 |  | > 100 | 32 | GI50 (Trypanosoma cruzi [3]): inactive; growth inhibition (GI) (Trypanosoma cruzi [4]): inactive
11 | COc1ccc(-c2cc(CNS(=O)(=O)c3ccc(F)cc3)on2)cc1OC | 42.4 | 72.8 | 6.6 | 7.1 | > 100 | 22.8 | CC50 at 48 h [7]: 327 µM; CC50 [8]: 300 µM; CC50 at 48 h [9]: 374 µM; CC50 at 48 h [10]: 397 µM
12 | O=S(=O)(NCc1cc(-c2ccccc2)no1)c1ccc(Cl)cc1 | > 50 | 16.6 | 17.2 |  | > 100 | 17.8 | 
